Assay results taken from US7671055B2, “Insecticidal 3-(dihaloalkenyl) phenyl derivatives” (FMC Corporation, priority 2004, dated 2010).

System: tobacco budworm (Heliothis virescens [Fabricius])
Test: surface-treated diet test against tobacco budworm
Type: in vivo
Settings: 0.25 millimolar on surface of diet; second instar larvae; five-day exposure; inhibition of insect weight relative to untreated controls
Experimental: Candidate insecticides were evaluated for activity against the tobacco budworm (Heliothis virescens [Fabricius]) in a surface-treated diet test.
In this test one mL of molten (65-70° C.) wheat germ-based artificial diet was pipetted into each well of a four by six (24 well) multi-well plate (ID#430345-15—[…].×17.6 mm deep; Corning Costar Corp., One Alewife Center, Cambridge, Mass. 02140). The diet was allowed to cool to ambient temperature before treatment with candidate insecticide.
For a determination of insecticidal activity, solutions of the candidate insecticides were prepared for testing using a Packard 204DT Multiprobe® Robotic System (Packard Instrument Company, 800 Research Parkway, Meriden, Conn. 06450), in which the robot first diluted a standard 50 millimolar DMSO solution of candidate insecticide with a 1:1 water/acetone solution (V/V) in a ratio of 1:7 stock solution to water/acetone. The robot subsequently pipetted 40 microliters of the so-prepared solution onto the surface of the diet in each of three wells in the 24 multi-well plate. The process was repeated with solutions of seven other candidate insecticides. […]
After the five-day exposure period insecticidal activity for each rate of application of candidate insecticide was assessed as percent inhibition of insect weight relative to the weight of insects from untreated controls. […]

SMILES	Percent Growth Inhibition [%]
CC1(C)Cc2cccc(OCCCCOc3cc(OCC=C(Cl)Cl)cc(Cl)c3Cl)c2O1 [Compound 2, 7-{4-[5-(3,3-dichloroprop-2-enyloxy)-2,3-dichlorophenoxy]butoxy}-2,2-dimethyl-2,3-dihydro-benzo[b]furan]	100
FC(F)(F)c1ccc(N2CCN(c3cc(OCC=C(Cl)Cl)cc(Cl)c3Br)CC2)nc1 [Compound 19, 5-(3,3-dichloroprop-2-enyloxy)-2-bromo-3-chloro-1-{4-[5-(trifluoromethyl)(2-pyridyl)]piperazinyl}-benzene]	100
